Counter-ions that a name gives are not always drawn.
How the values were obtained:
Type in all cases: biochemical
[1] = biological target: T1, human LSD1(171-852) (Homo sapiens, UniProt O60341); experiment: Measurement of LSD1 inhibitory activity (time-resolved fluorescence, biotin-histone H3 mono methylated K4 peptide); details: read-out: LSD1 IC50 value
T1 construct: to give hLSD1(171-852) purified product; made in house; host or cells: Escherichia coli C43(DE3) pLysS
Description: When the turbidity reached 600 Klett units, the culture temperature was changed to 16° C., IPTG having a final concentration of 0.5 mM was added to induce expression, and the cells were cultured further for 21 hr. The culture medium was centrifuged at 9,000 g for 10 min, and Escherichia coli pellets were recovered.
Escherichia coli pellets in 9 L of the culture medium were suspended in 1340 mL of an extraction buffer (PBS, 5% (V/V) Glycerol), and 6700 units of Benzonase (Merck) were added. Using Branson ultrasonic disintegrator, the suspension was disrupted by ultrasonication for 3 min, and centrifuged at 33,000 g for 20 min, and the supernatant was recovered.
(5) Measurement of LSD1 Inhibitory Activity
After reaction at room temperature for 20 min, 1 mM 2-PCPA solution (5 μL) was added to terminate the reaction. A detection solution (800 mM potassium fluoride, 0.1% BSA) containing europium-labeled antihistone H3 antibody (Wako Pure Chemical Industries, Ltd.) and Streptavidin-XL665 (Cisbio) was further added by 5 μL, and the mixture was left standing for 60 min. A time-resolved fluorescence (excitation 320 nm, emission 615 nm, 665 nm) was measured by Envision (PerkinElmer). The LSD1 inhibitory rate (%) of the test compound was calculated by the following formula. inhibitory rate (%)=(1−(test compound count−blank)÷(control−blank)×100
The count of the LSD1 enzyme reaction mixture under compound non-addition conditions is indicated as control, and the count under compound non-addition and LSD1 enzyme non-addition conditions is indicated as blank.

[2] = biological target: T2, MAO-A (Homo sapiens, UniProt P21397); experiment: Measurement of MAO-A inhibitory activity (MAO-Glo Assay)
T2 construct: purchased Sigma-Aldrich Co. LLC
T2 sequence (P21397 1-527): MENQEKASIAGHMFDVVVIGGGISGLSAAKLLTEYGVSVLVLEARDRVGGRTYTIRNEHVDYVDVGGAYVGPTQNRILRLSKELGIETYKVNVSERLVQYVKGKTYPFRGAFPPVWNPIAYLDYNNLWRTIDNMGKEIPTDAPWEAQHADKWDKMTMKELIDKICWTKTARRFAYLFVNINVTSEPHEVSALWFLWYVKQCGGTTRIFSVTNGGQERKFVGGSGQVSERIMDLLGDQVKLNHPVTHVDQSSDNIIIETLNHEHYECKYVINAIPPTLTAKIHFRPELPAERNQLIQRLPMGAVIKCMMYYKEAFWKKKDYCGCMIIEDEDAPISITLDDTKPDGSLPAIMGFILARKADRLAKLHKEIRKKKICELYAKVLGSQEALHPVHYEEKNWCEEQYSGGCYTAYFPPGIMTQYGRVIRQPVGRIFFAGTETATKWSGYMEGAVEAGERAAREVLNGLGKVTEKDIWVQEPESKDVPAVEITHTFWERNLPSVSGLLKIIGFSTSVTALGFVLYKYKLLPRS
Description: (1) Measurement of MAO-A Inhibitory Activity
The MAO-A inhibitory activity evaluation described below followed the protocol of MAO-Glo (registered trademark) Assay of Promega KK.
(§1) A test compound dissolved in 4% DMSO was added by 12.5 μL to 25 μL reaction solution (100 mM HEPES (pH 7.5), 5% glycerol) containing 400 ng of MAO-A enzyme (Sigma-Aldrich Co. LLC.), and the mixture was reacted at room temperature for 10 min. MAO substrate (Promega KK) (160 μM) was added by 12.5 μL to start the reaction. After reaction at room temperature for 60 min, Luciferine detection reagent (Promega KK) (50 μL) was added to terminate the reaction. After reaction at room temperature for 20 min with stirring, the luminescence was measured by Envision (PerkinElmer). The MAO-A inhibitory rate (%) of the test compound was calculated by the following formula. inhibitory rate (%)=(1−(test compound count−blank)÷(control−blank)×100
The count of the MAO-A enzyme reaction mixture under compound non-addition conditions is indicated as control, and the count under compound non-addition and MAO-A enzyme non-addition conditions is indicated as blank.

[3] = biological target: T3, MAO-B (Homo sapiens, UniProt P27338); experiment: Measurement of MAO-B inhibitory activity (MAO-Glo Assay)
T3 construct: purchased Sigma-Aldrich Co. LLC
T3 sequence (P27338 1-520): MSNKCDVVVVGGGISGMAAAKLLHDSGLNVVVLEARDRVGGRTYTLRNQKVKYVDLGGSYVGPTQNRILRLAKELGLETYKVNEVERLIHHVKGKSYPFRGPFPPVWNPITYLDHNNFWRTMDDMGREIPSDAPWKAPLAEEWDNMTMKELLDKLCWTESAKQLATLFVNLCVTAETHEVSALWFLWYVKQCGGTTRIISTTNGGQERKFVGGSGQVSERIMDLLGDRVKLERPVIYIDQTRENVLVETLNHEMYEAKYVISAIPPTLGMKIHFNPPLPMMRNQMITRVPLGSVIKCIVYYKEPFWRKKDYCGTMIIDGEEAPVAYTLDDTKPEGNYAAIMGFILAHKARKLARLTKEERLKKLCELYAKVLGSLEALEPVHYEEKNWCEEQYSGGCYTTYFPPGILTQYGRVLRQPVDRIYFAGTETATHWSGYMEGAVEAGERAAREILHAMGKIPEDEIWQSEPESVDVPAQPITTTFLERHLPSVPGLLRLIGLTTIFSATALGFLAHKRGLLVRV
Description: (2) Measurement of MAO-B Inhibitory Activity
The MAO-B inhibitory activity evaluation described below followed the protocol of MAO-Glo (registered trademark) Assay of Promega KK.
as §1, with “glycerol, 10% DMSO)” for “glycerol)”, “MAO-B” for “MAO-A”, “(16” for “(160”
The count of the MAO-B enzyme reaction mixture under compound non-addition conditions is indicated as control, and the count under compound non-addition and MAO-B enzyme non-addition conditions is indicated as blank.

Row | Compound | IC50 [1] [µM] | IC50 [2] [µM] | IC50 [3] [µM]
1 | O=C(Nc1ccc([C@@H]2C[C@H]2NCc2ccc(Cl)c(Cl)c2)cc1)c1ccc(-c2ccccc2)cc1 (relative stereo) [Example 53, N-(4-{trans-2-[(3,4-dichloro-benzyl)amino]-cyclopropyl}phenyl)-biphenyl-4-carboxamide] | 0.23 | 4 | 3.4
2 | O=C(Nc1ccc([C@@H]2C[C@H]2NC2CCN(Cc3ccccc3)CC2)cc1)c1ccc(-c2ccccc2)cc1 (relative stereo) [Example 51, N-(4-{trans-2-[(1-benzylpiperidin-4-yl)amino]cyclo-propyl}phenyl)-biphenyl-4-carboxamide] | 0.1 | > 10 | > 10
3 | O=C(Nc1ccc([C@@H]2C[C@H]2NCC2CC2)cc1)c1ccc(C2CCCCC2)cc1 (relative stereo) [Example 89, 4-cyclohexyl-N-(4-{trans-2-[(cyclopropylmethyl)amino]cyclopropyl}-phenyl)benzamide] | 0.1 | > 10 | > 10
4 | O=C1c2ccccc2CN1c1ccc([C@@H]2C[C@H]2NCC2CC2)cc1 (relative stereo) [Example 144, 2-(4-{trans-2-[(cyclopropylmethyl)amino]cyclopropyl}phenyl)isoindolin-1-one hydrochloride] | 0.2 | > 10 | > 10
5 | CS(=O)(=O)Nc1cccc(C(=O)Nc2ccc([C@@H]3C[C@H]3NCC3CC3)cc2)c1 (relative stereo) [Example 136, N-(4-{trans-2-[(cyclopropylmethyl)amino]cyclopropyl}phenyl)-3-[(methylsulfonyl)amino]benzamide hydrochloride] | < 0.1 | > 10 | > 10
6 | CN1CCC(N[C@@H]2C[C@H]2c2ccc(N(C)C(=O)c3cccc(C(F)(F)F)c3)cc2)CC1 (relative stereo) [Example 150, N-methyl-N-(4-{trans-2-[(1-methylpiperidin-4-yl)amino]cyclopropyl}phenyl)-3-(trifluoromethyl)benzamide dihydrochloride] | < 0.1 | > 10 | > 10
7 | O=C(Nc1ccc([C@@H]2C[C@H]2NCc2ccccc2)cc1)c1cccc(N2CCCCC2=O)c1 (relative stereo) [Example 33, N-{4-[trans-2-(benzylamino)cyclopropyl]phenyl}-3-(2-oxopiperidin-1-yl)benzamide] | < 0.1 | > 10 | > 10
8 | O=C(Nc1ccc([C@@H]2C[C@H]2NCc2ccccc2)cc1)c1cccc(NCc2ccccc2)c1 (relative stereo) [Example 29, 3-(benzylamino)-N-{4-[trans-2-(benzylamino)cyclopropyl]phenyl}benzamide] | 0.11 | 5.2 | > 10

Results, then the compound that gave them:

Row | IC50 [1] [µM] | IC50 [2] [µM] | IC50 [3] [µM] | Compound
9 | < 0.1 | > 10 | > 10 | CS(=O)(=O)c1ccc(C(=O)Nc2ccc([C@@H]3C[C@H]3NCC3CC3)cc2)cc1 (relative stereo) [Example 87, N-(4-{trans-2-[(cyclopropylmethyl)amino]cyclopropyl}-phenyl)-4-(methylsulfonyl)-benzamide]
10 | < 0.1 | 4.3 | 3.8 | COCC(C)N[C@@H]1C[C@H]1c1ccc(NC(=O)c2ccc(-c3ccccc3)cc2)cc1 (relative stereo) [Example 48, N-(4-{trans-2-[(2-methoxy-1-methyl-ethyl)amino]cyclo-propyl}phenyl)-biphenyl-4-carboxamide]
11 | < 0.1 | > 10 | > 10 | O=C(Nc1ccc([C@@H]2C[C@H]2NC2CCc3ccccc32)cc1)c1ccccc1 (relative stereo) [Example 20, N-{4-[trans-2-(2,3-dihydro-1H-inden-1-ylamino)cyclo-propyl]phenyl}-benzamide]
12 | < 0.1 | > 10 | > 10 | Cc1c(C(=O)Nc2ccc([C@@H]3C[C@H]3NCC3CC3)cc2)cnn1-c1ccccc1 (relative stereo) [Example 121, N-(4-{trans-2-[(cyclopropylmethyl)amino]cyclopropyl}-phenyl)-5-methyl-1-phenyl-1H-pyrazole-4-carboxamide]
13 | < 0.1 | > 10 | > 10 | O=C(Nc1ccc([C@@H]2C[C@H]2NC2CCN(c3ccccc3)CC2)cc1)c1cccc(C(F)(F)F)c1 (relative stereo) [Example 75, N-(4-{trans-2-[(1-phenylpiperidin-4-yl)amino]cyclopropyl}phenyl)-3-(trifluoromethyl)benzamide dihydrochloride]
14 | < 0.1 | > 10 | > 10 | O=C(Nc1ccc([C@@H]2C[C@H]2NCC2CC2)cc1)c1cc(-c2ccccc2)on1 (relative stereo) [Example 93, N-(4-{trans-2-[(cyclopropylmethyl)-amino]cyclopropyl}-phenyl)-5-phenyl-1,2-oxazole-3-carboxamide]
15 | < 0.1 | > 10 | > 10 | O=C(Nc1ccc([C@@H]2C[C@H]2NCc2c[nH]cn2)cc1)c1ccc(-c2ccccc2)cc1 (relative stereo) [Example 66, N-(4-{trans-2-[(1H-imidazol-4-ylmethyl)amino]cyclopropyl}phenyl)biphenyl-4-carboxamide dihydrochloride]
16 | < 0.1 | > 10 | > 10 | Cc1cc(C2CC2NCC2CC2)ccc1NC(=O)c1ccccc1 (stereo not drawn) [Example 81, N-(4-{trans-2-[(cyclopropylmethyl)amino]cyclopropyl}-2-methylphenyl)benzamide hydrochloride]

— patent publication US9682925B2, “Cyclopropaneamine compound” (TAKEDA PHARMACEUTICAL COMPANY LIMITED, priority 2011, dated 2017)
